Measured values taken from patent publication US20230380424A1, “IMPROVEMENTS IN OR RELATING TO COPPER BASED PESTICIDES” (AGRONATURALIS LTD, priority 2020, published 2023).

Legend:
[1] = Surface tension of spray compositions (Kruss DSA30 Drop shape analyser); format: physicochemical; settings: composition with 15 ppm copper hydroxide
Method: (§1) The surface wetting and deposition of copper from spray compositions was determined by comparing compositions containing 15 ppm copper hydroxide with varying amounts of sodium lauryl sulfate (Agnique SLS) on its own, varying amounts of sodium dioctyl sulfosuccinate (Geropon SDS) on its own and various mixtures of the two surfactants.
(§2) The measurements were made using a Kruss DSA30 Drop shape analyser.

[2] = Contact angle of spray compositions (Kruss DSA30 Drop shape analyser); format: physicochemical; settings: composition with 15 ppm copper hydroxide
Method: as §1
Contact angles of the same compositions were also measured.
as §2

contact angle ([2]; across all rates)	SMILES	surface tension (actual) ([1]; 5 ppm surfactant)	surface tension (actual) ([1]; 20 ppm surfactant)	surface tension (actual) ([1]; 50 ppm surfactant)	surface tension (actual) ([1]; 125 ppm surfactant)	surface tension (actual) ([1]; 250 ppm surfactant)	contact angle trend with concentration [2]
> 100 °	CCCCCCCCCCCCOS(=O)(=O)[O-].[Na+] [Agnique SLS, sodium lauryl sulfate]	70.4 mN/m	70.5 mN/m	67.3 mN/m	64.7 mN/m	64.6 mN/m	
	CCCCCCCCOC(=O)CC(C(=O)OCCCCCCCC)S(=O)(=O)O.[Na] (stereo not drawn) [Geropon SDS, sodium dioctyl sulfosuccinate]	70.0 mN/m	55.5 mN/m	49.6 mN/m	47.6 mN/m	43.9 mN/m	stepwise reduction from 5 ppm onwards
